Legend:
Type in all cases: in vivo
[1] = test system: Lolium multiflorum Lam.; assay: Test Example 5: herbicidal effect by foliage application, plastic box (symbol K); conditions: 320 g/ha, 3 weeks after application
How it was run: (§1)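 Emulsion formulation, diluted with water to the intended rate, was applied uniformly to leaves by small sprayer. Recipients were 14-day greenhouse-grown seedlings (25° C. to 30° C.). Assessment followed at 3 weeks.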

[2] = test system: Alopecurus myosuroides; assay: Test Example 4: herbicidal effect by soil treatment (symbol J); conditions: application herbicide amount 320 g/ha
How it was run: (§2)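 Seeds were sown in sterilized diluvial soil, covered with about 1.5 cm of soil, and the soil surface was sprayed with a water-diluted emulsion of the compound at a predetermined rate. Plants grew in a greenhouse at 25° C. to 30° C.; effects were scored visually 3 weeks after application.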

[3] = test system: beet; assay: Test Example 4: effect on crop by soil treatment (symbol f); conditions: application herbicide amount 320 g/ha
How it was run: (§3)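 Soil-treatment setup: crop and weed seeds were spot-sown into sterilized diluvial soil, then buried beneath approximately 1.5 cm of it, and the boxes were housed in a 25–30° C. greenhouse.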

[4] = test system: Alopecurus myosuroides; assay: Test Example 5: herbicidal effect by foliage application, plastic box (symbol J); conditions: 320 g/ha, 3 weeks after application
How it was run: as §1

[5] = test system: Digitaria ciliaris; assay: Test Example 4: herbicidal effect by soil treatment (symbol F); conditions: application herbicide amount 320 g/ha
How it was run: as §2

[6] = test system: Lolium multiflorum Lam.; assay: Test Example 4: herbicidal effect by soil treatment (symbol K); conditions: application herbicide amount 320 g/ha
How it was run: as §2

[7] = test system: Stellaria media; assay: Test Example 4: herbicidal effect by soil treatment (symbol P); conditions: application herbicide amount 320 g/ha
How it was run: as §2

[8] = test system: wheat; assay: Test Example 5: effect on crop by foliage application, plastic box (symbol e); conditions: 320 g/ha, 3 weeks after application
How it was run: (§4)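 Foliage-application test plants come from spot sowing in sterilized diluvial soil under a soil layer of about 1.5 cm, grown at 25° C. to 30° C. in a greenhouse.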

[9] = test system: rice; assay: Test Example 4: effect on crop by soil treatment (symbol b); conditions: application herbicide amount 320 g/ha
How it was run: as §3

[10] = test system: rapeseed; assay: Test Example 4: effect on crop by soil treatment (symbol g); conditions: application herbicide amount 320 g/ha
How it was run: as §3

[11] = test system: rice plant; assay: Test Example 5: effect on crop by foliage application, plastic box (symbol b); conditions: 320 g/ha, 3 weeks after application
How it was run: as §4

[12] = test system: wheat; assay: Test Example 4: effect on crop by soil treatment (symbol e); conditions: application herbicide amount 320 g/ha
How it was run: as §3

[13] = test system: directly sowed rice plant; assay: Test Example 3: effect on crop by foliage application, Wagner pot (symbol b); conditions: application herbicide amount 320 g/ha
How it was run: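 Steps: fill a 1/10000-are Wagner pot with alluvial soil; add water and mix to submerge at 0.1–0.5 cm depth; sow rice plus Echinochloa crus-galli var. crus-galli, Leptochloa chinensis and Cyperus difformis; grow in a 25–30 °C greenhouse.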

[14] = test system: Echinochloa oryzacola Vasing.; assay: Test Example 2: herbicidal activity, application during weed generation in submerged conditions (symbol A); conditions: Table 23; application herbicide amount 320 g/ha; grade 0-5 by criteria of Test Example 1
How it was run: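 Compound was applied as a water-diluted emulsion into the standing water of flooded pots (4 cm) once co-sown weeds reached one to two leaves. Greenhouse temperature was 25° C. to 30° C., soil was alluvial, and each species was rated visually after 3 weeks.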

[15] = test system: corn; assay: Test Example 4: effect on crop by soil treatment (symbol c); conditions: application herbicide amount 320 g/ha
How it was run: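 Crop seed is sown in spots together with several weed species in a box of sterilized diluvial soil. It is covered by about 1.5 cm of soil and kept in a greenhouse held between 25° C. and 30° C.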

SMILES | K: Lolium multiflorum Lam., herbicidal effect (criteria of Test Example 1) [1] | Herbicidal effect grade, J: Alopecurus myosuroides [2] | Effect on crop grade, f: beet [3] | J: Alopecurus myosuroides, herbicidal effect (criteria of Test Example 1) [4] | Herbicidal effect grade, F: Digitaria ciliaris [5] | Herbicidal effect grade, K: Lolium multiflorum Lam. [6] | Herbicidal effect grade, P: Stellaria media [7] | e: wheat, effect on crop (criteria of Test Example 1) [8] | Effect on crop grade, b: directly sowed rice plant [9] | Effect on crop grade, g: rapeseed [10] | b: directly sowed rice plant, effect on crop (criteria of Test Example 1) [11] | Effect on crop grade, e: wheat [12] | effect on crop b (directly sowed rice plant), grade 0-5 [13] | Herbicidal effect grade, A: Echinochloa oryzacola Vasing. [14] | Effect on crop grade, c: corn [15] | K: Lolium multiflorum Lam., herbicidal effect grade [1] | J: Alopecurus myosuroides, herbicidal effect grade [2] | f: beet, effect on crop grade [3] | J: Alopecurus myosuroides, herbicidal effect grade [4] | F: Digitaria ciliaris, herbicidal effect grade [5] | also measured
CON=C(C)CC1CC(OC(=O)C(C)CSC)=C(c2c(C)cc(-c3ccc(Cl)cc3)cc2C)C1=O (stereo not drawn) [6-086] | 5 (Herbicidal ratio of 90% or more (almost completely withered)) | 5 (Herbicidal ratio of 90% or more (almost completely withered)) | 1 (Herbicidal ratio of 5% or higher and lower than 20%) | 5 (Herbicidal ratio of 90% or more (almost completely withered)) | 5 (Herbicidal ratio of 90% or more (almost completely withered)) | 5 (Herbicidal ratio of 90% or more (almost completely withered)) | 4 (Herbicidal ratio of 70% or higher and lower than 90%) | 5 (Herbicidal ratio of 90% or more (almost completely withered)) | 1 (Herbicidal ratio of 5% or higher and lower than 20%) | 4 (Herbicidal ratio of 70% or higher and lower than 90%) | 5 (Herbicidal ratio of 90% or more (almost completely withered)) | 2 (Herbicidal ratio of 20% or higher and lower than 40%) | 5 (Herbicidal ratio of 90% or more (almost completely withered)) | 4 (Herbicidal ratio of 70% or higher and lower than 90%) | 0 (Herbicidal ratio of 5% or lower (almost no effect)) |  |  |  |  |  | 
CON=C(C)C(C)C1CC(O)=C(c2c(C)cc(Br)cc2OC)C1=O (stereo not drawn) [6-113] | 5 (Herbicidal ratio of 90% or more (almost completely withered)) | 5 (Herbicidal ratio of 90% or more (almost completely withered)) | 0 (Herbicidal ratio of 5% or lower (almost no effect)) | 5 (Herbicidal ratio of 90% or more (almost completely withered)) | 5 (Herbicidal ratio of 90% or more (almost completely withered)) | 5 (Herbicidal ratio of 90% or more (almost completely withered)) | 0 (Herbicidal ratio of 5% or lower (almost no effect)) | 5 (Herbicidal ratio of 90% or more (almost completely withered)) | 5 (Herbicidal ratio of 90% or more (almost completely withered)) | 1 (Herbicidal ratio of 5% or higher and lower than 20%) | 5 (Herbicidal ratio of 90% or more (almost completely withered)) | 0 (Herbicidal ratio of 5% or lower (almost no effect)) | 5 (Herbicidal ratio of 90% or more (almost completely withered)) | 5 (Herbicidal ratio of 90% or more (almost completely withered)) | 1 (Herbicidal ratio of 5% or higher and lower than 20%) |  |  |  |  |  | 
CON=C(C)CC1CC(O)=C(c2c(C)cc(-c3ccccn3)cc2C)C1=O (mixture of isomers) [6-051] |  |  |  |  |  |  |  |  |  |  |  |  | 5 (Herbicidal ratio of 90% or more (almost completely withered)) | 5 (Herbicidal ratio of 90% or more (almost completely withered)) |  | 5 (Herbicidal ratio of 90% or more (almost completely withered)) | 5 (Herbicidal ratio of 90% or more (almost completely withered)) | 0 (Herbicidal ratio of 5% or lower (almost no effect)) | 5 (Herbicidal ratio of 90% or more (almost completely withered)) | 5 (Herbicidal ratio of 90% or more (almost completely withered)) | K: Lolium multiflorum Lam., herbicidal effect grade [6]: 5 (Herbicidal ratio of 90% or more (almost completely withered)); P: Stellaria media, herbicidal effect grade [7]: 2 (Herbicidal ratio of 20% or higher and lower than 40%); e: wheat, effect on crop grade [8]: 4 (Herbicidal ratio of 70% or higher and lower than 90%); b: directly sowed rice plant, effect on crop grade [9]: 5 (Herbicidal ratio of 90% or more (almost completely withered)); g: rapeseed, effect on crop grade [10]: 4 (Herbicidal ratio of 70% or higher and lower than 90%); b: directly sowed rice plant, effect on crop grade [11]: 5 (Herbicidal ratio of 90% or more (almost completely withered)); e: wheat, effect on crop grade [12]: 2 (Herbicidal ratio of 20% or higher and lower than 40%); c: corn, effect on crop grade [15]: 1 (Herbicidal ratio of 5% or higher and lower than 20%)
CC(=O)C1CC(O)=C(c2c(C)cc(C)cc2C)C1=O (stereo not drawn) [8-001] |  | 0 (Herbicidal ratio of 5% or lower (almost no effect)) | 0 (Herbicidal ratio of 5% or lower (almost no effect)) |  | 0 (Herbicidal ratio of 5% or lower (almost no effect)) | 0 (Herbicidal ratio of 5% or lower (almost no effect)) | 0 (Herbicidal ratio of 5% or lower (almost no effect)) |  | 0 (Herbicidal ratio of 5% or lower (almost no effect)) | 0 (Herbicidal ratio of 5% or lower (almost no effect)) |  | 0 (Herbicidal ratio of 5% or lower (almost no effect)) |  | 0 (Herbicidal ratio of 5% or lower (almost no effect)) | 0 (Herbicidal ratio of 5% or lower (almost no effect)) | 1 (Herbicidal ratio of 5% or higher and lower than 20%) |  |  | 0 (Herbicidal ratio of 5% or lower (almost no effect)) |  | e: wheat, effect on crop grade [8]: 0 (Herbicidal ratio of 5% or lower (almost no effect)); b: directly sowed rice plant, effect on crop grade [11]: 2 (Herbicidal ratio of 20% or higher and lower than 40%); b (directly sowed rice plant) effect on crop grade ([13]; Table 24): 0 (Herbicidal ratio of 5% or lower (almost no effect))
CON=C(C)CC1CC(OC(=O)CCCC(C)=O)=C(c2c(C)cc(-c3ccc(Cl)cc3)cc2C)C1=O (stereo not drawn) [6-080] | 5 (Herbicidal ratio of 90% or more (almost completely withered)) |  |  | 5 (Herbicidal ratio of 90% or more (almost completely withered)) |  |  |  | 5 (Herbicidal ratio of 90% or more (almost completely withered)) |  |  | 5 (Herbicidal ratio of 90% or more (almost completely withered)) |  | 5 (Herbicidal ratio of 90% or more (almost completely withered)) | 5 (Herbicidal ratio of 90% or more (almost completely withered)) |  |  | 5 (Herbicidal ratio of 90% or more (almost completely withered)) | 0 (Herbicidal ratio of 5% or lower (almost no effect)) |  | 5 (Herbicidal ratio of 90% or more (almost completely withered)) | K: Lolium multiflorum Lam., herbicidal effect grade [6]: 5 (Herbicidal ratio of 90% or more (almost completely withered)); P: Stellaria media, herbicidal effect grade [7]: 0 (Herbicidal ratio of 5% or lower (almost no effect)); b: directly sowed rice plant, effect on crop grade [9]: 0 (Herbicidal ratio of 5% or lower (almost no effect)); g: rapeseed, effect on crop grade [10]: 0 (Herbicidal ratio of 5% or lower (almost no effect)); e: wheat, effect on crop grade [12]: 0 (Herbicidal ratio of 5% or lower (almost no effect)); c: corn, effect on crop grade [15]: 0 (Herbicidal ratio of 5% or lower (almost no effect))

Source: patent US11000033B2, “Ketone or oxime compound, and herbicide” (NISSAN CHEMICAL CORPORATION, priority 2014, dated 2021)
